Test results from PMC5797045, “Characterization of CDK(5) inhibitor, 20-223 (aka CP668863) for colorectal cancer therapy” (Oncotarget, 2017).

Experiments:
[1] = molecular target: T1, CDK5 (Homo sapiens, UniProt Q00535); test: cell-free kinase assay, 10-point dose response; type: biochemical
T1 construct: with p35

[2] = molecular target: T2, CDK2 (Homo sapiens, UniProt P24941); test: cell-free kinase assay, 10-point dose response; type: biochemical
T2 construct: with Cyclin E

T1 sequence (Q00535 whole entry): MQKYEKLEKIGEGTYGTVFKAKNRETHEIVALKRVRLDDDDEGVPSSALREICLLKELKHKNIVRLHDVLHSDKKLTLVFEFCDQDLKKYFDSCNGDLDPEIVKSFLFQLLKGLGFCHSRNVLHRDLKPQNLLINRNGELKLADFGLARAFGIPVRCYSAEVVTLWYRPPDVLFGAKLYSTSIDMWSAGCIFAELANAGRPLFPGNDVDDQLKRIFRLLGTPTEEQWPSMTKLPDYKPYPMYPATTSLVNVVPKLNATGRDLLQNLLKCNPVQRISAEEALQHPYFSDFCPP
T1 sequence (Q15078 2-307 partner): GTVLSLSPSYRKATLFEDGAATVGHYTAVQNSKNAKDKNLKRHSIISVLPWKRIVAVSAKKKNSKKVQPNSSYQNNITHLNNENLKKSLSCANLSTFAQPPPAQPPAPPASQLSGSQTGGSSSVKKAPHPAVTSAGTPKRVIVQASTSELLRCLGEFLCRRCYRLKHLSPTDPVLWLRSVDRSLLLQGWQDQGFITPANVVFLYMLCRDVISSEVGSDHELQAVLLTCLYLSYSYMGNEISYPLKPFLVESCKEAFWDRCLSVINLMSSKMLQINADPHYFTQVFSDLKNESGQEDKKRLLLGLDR

IC50 [1]: 8.8 nM
IC50 [2]: 6 nM
Compound: O=C(Cc1ccc2ccccc2c1)Nc1cc(C2CCC2)[nH]n1 [20-223]
